Series [1] addresses CYP3A4 (Homo sapiens, UniProt P08684). In words: Study 1 (NCT03628339): effect of tepotinib on midazolam pharmacokinetics in healthy participants. The protocol:
(§1) Study 1 (NCT03628339) and Study 2 (NCT03492437) were both Phase 1, open-label, single sequence, 2-period studies in 12 and 20 healthy participants, respectively (Fig. 1).
In Period 2 (Days 3 to 15), participants received 500 mg tepotinib, QD 30 min after starting a continental breakfast on Days 3 to 12. On Day 13, participants received the final dose of 500 mg tepotinib 30 min after starting a standardized breakfast identical to the one on Day 1. […] Blood samples for trough concentrations of tepotinib were collected on Days 11, 12 and 13.
(§2) Parameters included maximum plasma concentration (Cmax) and time to reach Cmax (Tmax) taken directly from the observed data. Area under the plasma concentration–time curve (AUC) from time 0 to the last measured concentration (AUC0-t), AUC over the dose interval (AUCtau) and AUC extrapolated to infinity (AUC0-∞) were calculated using the mixed log/linear trapezoidal rule. Terminal elimination half-life (t1/2) was calculated as ln(2)/λz where λz is the terminal rate constant. The primary pharmacokinetic parameters in both studies were Cmax, AUC0-t and AUC0-∞.
(§3) A similar statistical approach was taken for both studies. […] Point estimates and CIs were back-transformed to the original scale.

Series [2] addresses P-gp (Homo sapiens, UniProt P08183). Kind of series: Study 2 (NCT03492437): effect of tepotinib on dabigatran pharmacokinetics in healthy participants. The format is in vivo. The protocol: as §1
In Period 2 (Days 4 to 14), participants received 500 mg tepotinib QD on Days 4 to 11. […] Blood samples for trough concentrations of tepotinib were collected on Days 9 and 10. Further blood samples for tepotinib and its metabolites were also collected up to 24 h postdose on Day 10.
as §2, §3

[3] abbreviates: midazolam 7.5 mg single oral dose alone, N = 12, geometric mean (geometric CV%).
Where [4] appears, read: midazolam 7.5 mg with tepotinib 500 mg once daily, N = 12, geometric mean (geometric CV%).
Setting [5] is: tepotinib + dabigatran versus dabigatran alone.

Sequence of CYP3A4 (P08684 whole entry): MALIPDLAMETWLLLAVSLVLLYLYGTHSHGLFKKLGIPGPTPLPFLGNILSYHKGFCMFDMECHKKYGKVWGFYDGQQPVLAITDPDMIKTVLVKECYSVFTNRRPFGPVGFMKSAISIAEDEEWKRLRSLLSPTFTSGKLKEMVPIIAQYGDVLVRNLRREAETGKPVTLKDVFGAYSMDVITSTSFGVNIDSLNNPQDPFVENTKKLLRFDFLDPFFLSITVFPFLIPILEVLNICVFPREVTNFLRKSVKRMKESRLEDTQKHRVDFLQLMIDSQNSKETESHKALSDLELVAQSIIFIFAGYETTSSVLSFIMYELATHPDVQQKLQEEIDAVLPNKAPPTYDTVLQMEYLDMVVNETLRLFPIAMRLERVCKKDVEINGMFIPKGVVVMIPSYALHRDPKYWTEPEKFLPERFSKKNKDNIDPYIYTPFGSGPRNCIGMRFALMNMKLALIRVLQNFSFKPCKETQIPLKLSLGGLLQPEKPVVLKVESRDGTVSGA
Sequence of P-gp (P08183 whole entry): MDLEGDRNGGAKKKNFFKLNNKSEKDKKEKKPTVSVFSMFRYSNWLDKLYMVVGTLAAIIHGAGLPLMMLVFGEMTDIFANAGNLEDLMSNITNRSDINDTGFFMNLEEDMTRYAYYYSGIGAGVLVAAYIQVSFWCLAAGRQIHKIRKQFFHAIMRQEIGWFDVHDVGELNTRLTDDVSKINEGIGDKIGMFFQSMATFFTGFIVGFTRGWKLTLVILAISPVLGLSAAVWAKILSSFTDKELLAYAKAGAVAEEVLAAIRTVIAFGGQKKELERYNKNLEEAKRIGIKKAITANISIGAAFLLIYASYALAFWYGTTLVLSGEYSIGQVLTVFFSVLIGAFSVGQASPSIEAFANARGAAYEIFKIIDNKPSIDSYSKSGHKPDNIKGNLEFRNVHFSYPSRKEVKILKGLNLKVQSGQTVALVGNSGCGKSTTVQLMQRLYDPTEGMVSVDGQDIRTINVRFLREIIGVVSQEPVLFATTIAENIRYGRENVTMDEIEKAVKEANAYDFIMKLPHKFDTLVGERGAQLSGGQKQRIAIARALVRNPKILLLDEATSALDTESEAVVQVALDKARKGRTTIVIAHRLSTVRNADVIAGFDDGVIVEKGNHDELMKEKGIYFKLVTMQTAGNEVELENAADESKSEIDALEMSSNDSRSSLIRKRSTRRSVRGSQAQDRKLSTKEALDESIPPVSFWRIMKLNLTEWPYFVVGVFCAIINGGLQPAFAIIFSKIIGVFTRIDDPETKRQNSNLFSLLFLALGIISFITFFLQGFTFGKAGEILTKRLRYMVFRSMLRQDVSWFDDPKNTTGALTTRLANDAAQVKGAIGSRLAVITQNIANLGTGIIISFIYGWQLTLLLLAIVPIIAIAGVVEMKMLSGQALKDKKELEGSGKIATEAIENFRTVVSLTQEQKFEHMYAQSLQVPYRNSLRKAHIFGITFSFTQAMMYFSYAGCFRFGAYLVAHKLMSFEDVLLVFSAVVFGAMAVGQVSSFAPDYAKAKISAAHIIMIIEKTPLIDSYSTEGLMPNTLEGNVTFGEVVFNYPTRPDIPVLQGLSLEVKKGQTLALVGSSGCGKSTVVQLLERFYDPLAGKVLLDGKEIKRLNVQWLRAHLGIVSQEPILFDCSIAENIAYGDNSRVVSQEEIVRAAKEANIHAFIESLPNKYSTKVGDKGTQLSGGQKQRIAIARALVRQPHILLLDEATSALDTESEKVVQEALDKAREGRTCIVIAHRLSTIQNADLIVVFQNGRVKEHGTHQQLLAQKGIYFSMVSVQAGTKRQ

Regarding `OCc1ncc2n1-c1ccc(Cl)cc1C(c1ccccc1F)=NC2` [1-hydroxymidazolam], in series [1] (setting [3]), the AUC0-t was 30,589 (24) h*pg/mL, the “AUC0-∞” value was 31,269 (23) h*pg/mL, the Cmax is on record as 14,909 (60) pg/mL and the t1/2 is given as 6.34 (30) h. Also, in series [1] (midazolam 7.5 mg single oral dose alone, N = 12, median (min, max)), the Tmax was 0.500 (0.500, 2.00) h. In series [1] (setting [4]), the AUC0-t was 32,627 (25) h*pg/mL, the “AUC0-∞” value is on record as 33,372 (24) h*pg/mL, the Cmax is listed as 15,852 (35) pg/mL and the t1/2 is given as 6.90 (27) h. In series [1] (midazolam 7.5 mg with tepotinib 500 mg once daily, N = 12, median (min, max)), the Tmax is 0.508 (0.483, 2.00) h. In series [1] (midazolam alone, geometric mean (geometric CV%)), the “MR_AUC (metabolic ratio of 1-hydroxymidazolam AUC0-∞ and midazolam AUC0-∞)” value is on record as 0.286 (37) ratio. For the same molecule, the “MR_AUC (metabolic ratio of 1-hydroxymidazolam AUC0-∞ and midazolam AUC0-∞)” value in series [1] (midazolam with tepotinib 500 mg once daily, geometric mean (geometric CV%)) is recorded as 0.302 (34) ratio.
As for `[H]/N=C(/N)c1ccc(NCc2nc3cc(C(=O)N(CCC(=O)O)c4ccccn4)ccc3n2C)cc1` [dabigatran], the half-life in series [2] (human, plasma, oral, read-out: Terminal half-life (converted)) is about 8 h. Also, in series [2] (tepotinib 500 mg QD orally), the “Exposure increase to dabigatran with tepotinib” value is reported as under 2 fold. In addition, the “Increase of dabigatran area under the curve extrapolated to infinity by tepotinib” value in series [2] (tepotinib 500 mg once daily) is 51%. In addition, the “Increase of dabigatran AUC by coadministration with tepotinib” value in series [2] (tepotinib 500 mg once daily, compared to administration alone) is listed as about 50%. In addition, in series [2] (setting [5]), the “Ratio of Geometric LS Mean (90% CI), AUC0-t” value is recorded as 151.38 (127.35, 179.93) % and the “Ratio of Geometric LS Mean (90% CI), AUC0-∞” value is 144.70 (122.89, 170.39) %.
Turning to `Cc1ncc2n1-c1ccc(Cl)cc1C(c1ccccc1F)=NC2` [midazolam], in series [1] (human, plasma, oral), the Tmax amounted to 0.508 h and the half-life was about 5 h. Also, in series [1] (human, plasma, po, 7.5 mg), the AUC0-t was 108 ng·h/mL, the AUC(0-inf) was found to be 109 ng·h/mL, the Cmax worked out at 49.2 ng/mL and the Tmax came to 0.5 h. For the same molecule, the t1/2 in series [1] (setting [4]) is listed as 4.81 (41) h. Also, in series [1] (tepotinib 500 mg QD orally), the “Change in exposure to midazolam with tepotinib (in words)” value was “no change in exposure”.

As a reminder, the half-life is how long it takes for the measured level to halve.

The record behind these values is paper PMC10447267, “Assessment of the potential of the MET inhibitor tepotinib to affect the pharmacokinetics of CYP3A4 and P-gp substrates” (Investigational New Drugs, 2023).
